Key:
[1] = tested on: fully differentiated 3T3L1 adipocytes; experiment: glucose uptake in 3T3L1 adipocytes; type: cell-based; conditions: insulin as positive control
Description: (§1) The compound 2,2,15,15-tetramethylhexadecane-1,16-dioic acid (also designated M16αα), and also the compounds […] (M18αα) and 2,2,19,19-tetramethyl-[…]-1,20-dioic acid (M20αα), were tested for their effect on glucose uptake and production, and the expression of glucose- and lipid-related genes in in vitro models. […] Inhibition of glucose production was tested in HepG2 human liver cells.

HepG2 human liver cells = experiment: inhibition of glucose production in HepG2 cells; type: cell-based
Description: as §1

[2] = tested on: cultured human HepG2 liver cells; experiment: inhibition of lipoprotein production in HepG2 cells; type: cell-based
[3] = tested on: genes that control liver gluconeogenesis and lipid synthesis; experiment: expression of glucose- and lipid-related genes in in vitro models; type: cell-based
Description: as §1

[4] = tested on: C57BL/KsJ (db/db) Spontaneous T2D mice; experiment: glucose lowering effect in db/db mice; type: in vivo; conditions: once daily oral 30 mg/kg
Description: In addition, the glucose lowering effect of the above three compounds M16αα, M18αα and M20αα was tested in C57BL/KsJ (db/db) Spontaneous T2D mice, which serve as a model for T2D. These animals are characterized by hyperphagia, obesity, hyperglycemia and insulin resistance. The mice were treated once daily by oral administration of the tested compound at 30 mg/kg.

half-life in rats = conditions: rat, in vivo, read-out: half-life (T1/2) (converted)
Description: (§2) The half-life (T1/2) of Medica compounds in humans differs considerably from their half-life in model animals. […] This difference in half-life could not be expected, and is of considerable significance when designing a new treatment protocol for humans.

half-life in dogs = conditions: dog, in vivo, read-out: half-life (T1/2) (converted)
Description: as §2

half-life in humans = type: in vivo; conditions: human, in vivo, read-out: half-life (T1/2) (converted)
Description: as §2

Row | Compound | glucose uptake [1] | hepatic glucose production (HepG2 human liver cells) | lipoprotein production [2] | expression of genes that control liver gluconeogenesis and lipid synthesis [3] | blood glucose levels [4] | serum insulin levels [4] | serum triglyceride levels [4] | half-life (half-life in rats) [h] | half-life (half-life in dogs) [h] | half-life (half-life in humans) [h]
1 | CC(C)(CCCCCCCCCCCCCCC(C)(C)C(=O)O)C(=O)O [M18αα, 2,2,17,17-tetramethylocta-decane-1,18-dioic acid] | increase glucose uptake | significant or full inhibition | significant or full inhibition | effective in inhibiting | significantly decrease | significantly decrease | significantly decrease |  |  | 
2 | CC(C)(CCCCCCCCCCCCCCCCC(C)(C)C(=O)O)C(=O)O [M20αα] | increase glucose uptake | significant or full inhibition | significant or full inhibition | effective in inhibiting | significantly decrease | significantly decrease | significantly decrease |  |  | 
3 | CC(C)(CCCCCCCCCCC(C)(C)CC(=O)O)CC(=O)O [Medica16-ββ, 3,3,14,14-tetramethylhexadecanedioic acid, reference compound] |  |  |  |  |  |  |  | 2.7 ± 0.4 | 25.8 | 31.5 ± 12.8
